Results published in patent publication US12357631B2 (priority 2018, dated 2025).
pEC50: −log10 of the molar value.

biological target: PB2 (Influenza A virus, UniProt P03428); assay: biochemical; assay type: binding
Sequence (P03428 whole entry, looked up): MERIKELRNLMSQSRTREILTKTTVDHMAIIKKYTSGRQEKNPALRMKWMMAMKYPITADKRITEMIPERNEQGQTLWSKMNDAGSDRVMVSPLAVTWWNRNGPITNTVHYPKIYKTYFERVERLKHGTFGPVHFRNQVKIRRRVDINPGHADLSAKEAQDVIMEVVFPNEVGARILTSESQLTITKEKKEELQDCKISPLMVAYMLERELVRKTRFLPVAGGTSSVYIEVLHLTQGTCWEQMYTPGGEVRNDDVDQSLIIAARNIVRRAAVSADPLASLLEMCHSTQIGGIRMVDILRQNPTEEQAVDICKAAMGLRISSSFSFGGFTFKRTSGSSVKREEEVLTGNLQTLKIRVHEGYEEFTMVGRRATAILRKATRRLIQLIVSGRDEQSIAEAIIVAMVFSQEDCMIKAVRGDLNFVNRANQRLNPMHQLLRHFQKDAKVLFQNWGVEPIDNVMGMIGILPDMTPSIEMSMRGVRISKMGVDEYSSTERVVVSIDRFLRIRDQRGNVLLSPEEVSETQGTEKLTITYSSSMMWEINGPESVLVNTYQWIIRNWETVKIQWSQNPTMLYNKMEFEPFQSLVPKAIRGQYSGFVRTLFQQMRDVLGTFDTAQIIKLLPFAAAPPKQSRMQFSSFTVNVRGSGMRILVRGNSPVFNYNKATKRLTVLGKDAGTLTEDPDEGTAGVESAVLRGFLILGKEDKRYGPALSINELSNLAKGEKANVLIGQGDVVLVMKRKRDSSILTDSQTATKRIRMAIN

First: CCOC(=O)CCN1CCC[C@@H](Nc2nc(-c3c[nH]c4ncc(F)cc34)ncc2F)C1 [Compound C14]
Second: CCOC(=O)CN1CCC[C@H](Nc2nc(-c3c[nH]c4ncc(F)cc34)ncc2F)C1 [Compound C11]
The pEC50 of the first is higher: 4.60 to 5.30 for the first, 4.30 to 4.60 for the second.

CCOCCOCCOCCS(=O)(=O)N[C@@H]1CCC[C@H](Nc2nc(-c3c[nH]c4ncc(F)cc34)ncc2F)C1 [Compound A266] and CCOCCOCCOCCNC(=O)N[C@@H]1CCC[C@H](Nc2nc(-c3c[nH]c4ncc(F)cc34)ncc2F)C1 [Compound A168] fall in the same range of pEC50: 4.60 to 5.30 for the first, 4.60 to 5.30 for the second.

First: O=C(N[C@H]1CCC[C@@H](Nc2nc(-c3c[nH]c4ncc(F)cc34)ncc2F)C1)N1CCc2ccccc21 [Compound A14]
Second: O=C(N[C@H]1CCC[C@@H](Nc2nc(-c3c[nH]c4ncc(F)cc34)ncc2F)C1)N1CCCc2ccccc21 [Compound A1]
The pEC50 of the first is higher: 4.00 to 4.30 for the first, under 4.00 for the second. The first is the more potent here.

Compared with CCOCCCc1cccc(CCN(C)C(=O)N[C@H]2CCC[C@@H](Nc3nc(-c4c[nH]c5ncc(F)cc45)ncc3F)C2)c1 [Compound A220], CCOCCCc1cccc(CCN(C)C(=O)N[C@H]2CCC[C@@H](Nc3nc(-c4c[nH]c5ncc(F)cc45)ncc3F)C2)n1 [Compound A213] is lower in pEC50: 4.00 to 4.30 for the first, under 4.00 for the second. The first is the more potent here.

CCOCCOCCCC1CCN(C(=O)N[C@@H]2CCC[C@H](Nc3nc(-c4c[nH]c5ncc(F)cc45)ncc3F)C2)C1 (stereo partly drawn) [Compound A7] and CCOCCOCCCC1CCN(C(=O)N[C@H]2CCC[C@@H](Nc3nc(-c4c[nH]c5ncc(F)cc45)ncc3F)C2)C1 (stereo partly drawn) [Compound A11] fall in the same range of pEC50: 4.60 to 5.30 for the first, 4.60 to 5.30 for the second.

First: O=C(NCc1ccccn1)OCc1ccnc(C(=O)N[C@H]2CCC[C@@H](Nc3nc(-c4c[nH]c5ncc(F)cc45)ncc3F)C2)c1 [Compound A96]
Second: COc1ccccc1CNC(=O)OCc1ccnc(C(=O)N[C@H]2CCC[C@@H](Nc3nc(-c4c[nH]c5ncc(F)cc45)ncc3F)C2)c1 [Compound A122]
The pEC50 of the first is higher: 4.60 to 5.30 for the first, under 4.00 for the second. The first is the more potent here.

First: CCOCCOCCCc1cc(C(=O)N[C@@H]2CCC[C@H](Nc3nc(-c4c[nH]c5ncc(F)cc45)ncc3F)C2)ncn1 [Compound A33]
Second: CCOCCOCCCc1ccnc(C(=O)N[C@H]2CCC[C@@H](Nc3nc(-c4c[nH]c5ncc(F)cc45)ncc3F)C2)c1 [Compound A288]
The pEC50 of the first is lower: under 4.00 for the first, 4.60 to 5.30 for the second.

CCOCc1cccc(COCCN(C)C(=O)N[C@@H]2CCC[C@H](Nc3nc(-c4c[nH]c5ncc(F)cc45)ncc3F)C2)c1 [Compound A184] and CCOCCOc1cccc(CC(=O)N[C@H]2CCC[C@@H](Nc3nc(-c4c[nH]c5ncc(F)cc45)ncc3F)C2)c1 [Compound A279] cannot be ordered by pEC50: under 4.00 for the first, under 4.00 for the second.

First: CCOCCC(=O)N(CC)Cc1ccnc(C(=O)N[C@@H]2CCC[C@H](Nc3nc(-c4c[nH]c5ncc(F)cc45)ncc3F)C2)c1 [Compound A69]
Second: CCOCCc1ccnc(C(=O)N[C@H]2CCC[C@@H](Nc3nc(-c4c[nH]c5ncc(F)cc45)ncc3F)C2)c1 [Compound A44]
The pEC50 of the first is higher: over 5.30 for the first, 4.30 to 4.60 for the second.

Compared with O=C(N[C@H]1CCC[C@@H](Nc2nc(-c3c[nH]c4ncc(F)cc34)ncc2F)C1)N1Cc2ccccc2C1 [Compound A3], O=C(N[C@H]1CCC[C@@H](Nc2nc(-c3c[nH]c4ncc(F)cc34)ncc2F)C1)c1cccnc1 [Compound A37] is lower in pEC50: 4.60 to 5.30 for the first, under 4.00 for the second. The first is the more potent here.

CC(NC(=O)OCc1ccnc(C(=O)N[C@H]2CCC[C@@H](Nc3nc(-c4c[nH]c5ncc(F)cc45)ncc3F)C2)c1)c1ccccc1F (stereo partly drawn) [Compound A143] and O=C(NCCc1ccc(F)cc1)OCc1ccnc(C(=O)N[C@H]2CCC[C@@H](Nc3nc(-c4c[nH]c5ncc(F)cc45)ncc3F)C2)c1 [Compound A101] cannot be ordered by pEC50: under 4.00 for the first, under 4.00 for the second.

CCCCCCCCCCCNC(=O)N[C@@H]1CCC[C@H](Nc2nc(-c3c[nH]c4ncc(F)cc34)ncc2F)C1 [Compound A174] and CCCCCCCCCCCN(C)C(=O)N[C@@H]1CCC[C@H](Nc2nc(-c3c[nH]c4ncc(F)cc34)ncc2F)C1 [Compound A175] fall in the same range of pEC50: 4.00 to 4.30 for the first, 4.00 to 4.30 for the second.

First: CCOCCOCc1cccc(-c2ccnc(C(=O)N[C@H]3CCC[C@@H](Nc4nc(-c5c[nH]c6ncc(F)cc56)ncc4F)C3)c2)c1 [Compound A90]
Second: COCc1cccc(-c2ccnc(C(=O)N[C@@H]3CCC[C@H](Nc4nc(-c5c[nH]c6ncc(F)cc56)ncc4F)C3)c2)c1 [Compound A61]
The pEC50 of the first is lower: 4.00 to 4.30 for the first, 4.30 to 4.60 for the second. The second is the more potent here.

First: CCOCCOCCOCCNC(=O)N(CCc1ccccc1)[C@@H]1CCC[C@H](Nc2nc(-c3c[nH]c4ncc(F)cc34)ncc2F)C1 [Compound B2]
Second: CCOCCOCCOCCNC(=O)N(CCCCc1ccccc1)[C@H]1CCC[C@@H](Nc2nc(-c3c[nH]c4ncc(F)cc34)ncc2F)C1 [Compound A194]
The pEC50 of the first is higher: 4.00 to 4.30 for the first, under 4.00 for the second.

CCCCCOCCOCC(=O)N[C@H]1CCC[C@@H](Nc2nc(-c3c[nH]c4ncc(F)cc34)ncc2F)C1 [Compound A277] and CCCCCOCCOCCN(C)C(=O)N[C@@H]1CCC[C@H](Nc2nc(-c3c[nH]c4ncc(F)cc34)ncc2F)C1 [Compound A177] cannot be ordered by pEC50: under 4.00 for the first, under 4.00 for the second.

CCOCCOCCCCCN(CC)C(=O)N[C@H]1CCC[C@@H](Nc2nc(-c3c[nH]c4ncc(F)cc34)ncc2F)C1 [Compound A227] and CCOCCOCCCCCN(C)C(=O)NC1CCC(Nc2nc(-c3c[nH]c4ncc(F)cc34)ncc2F)C1 (stereo not drawn) [Compound A217] cannot be ordered by pEC50: under 4.00 for the first, under 4.00 for the second.

CCCCCCCOCCCN(C)C(=O)N[C@H]1CCC[C@@H](Nc2nc(-c3c[nH]c4ncc(F)cc34)ncc2F)C1 [Compound A206] and CCCCCOCCCCCN(C)C(=O)N[C@@H]1CCC[C@H](Nc2nc(-c3c[nH]c4ncc(F)cc34)ncc2F)C1 [Compound A201] cannot be ordered by pEC50: under 4.00 for the first, under 4.00 for the second.

Compared with CCOCc1ccc(C(=O)N[C@@H]2CCC[C@H](Nc3nc(-c4c[nH]c5ncc(F)cc45)ncc3F)C2)nc1 [Compound A41], O=C(N[C@@H]1CCC[C@H](Nc2nc(-c3c[nH]c4ncc(F)cc34)ncc2F)C1)c1cc(CCCO)ccn1 [Compound A39] is higher in pEC50: 4.00 to 4.30 for the first, over 5.30 for the second. The second is the more potent here.

O=C(N[C@@H]1CCC[C@H](Nc2nc(-c3c[nH]c4ncc(F)cc34)ncc2F)C1)c1cc(CCCOCCOCc2ccccc2)ccn1 [Compound A34] and O=C(N[C@@H]1CCC[C@H](Nc2nc(-c3c[nH]c4ncc(F)cc34)ncc2F)C1)c1cc(CCCOCCOCc2ccc(F)cc2)ccn1 [Compound A36] cannot be ordered by pEC50: under 4.00 for the first, under 4.00 for the second.

Compared with CCOCCOCCCC1CCCN(C(=O)N[C@@H]2CCC[C@H](Nc3nc(-c4c[nH]c5ncc(F)cc45)ncc3F)C2)C1 (stereo partly drawn) [Compound A4], CCOCCCCCOCCNC(=O)N[C@H]1CCC[C@@H](Nc2nc(-c3c[nH]c4ncc(F)cc34)ncc2F)C1 [Compound A192] is lower in pEC50: 4.00 to 4.30 for the first, under 4.00 for the second.

Compared with CN(CCCCCOCCOCc1ccccn1)C(=O)N[C@@H]1CCC[C@H](Nc2nc(-c3c[nH]c4ncc(F)cc34)ncc2F)C1 [Compound A222], CCOc1ccccc1OCCCCCN(C)C(=O)N[C@H]1CCC[C@@H](Nc2nc(-c3c[nH]c4ncc(F)cc34)ncc2F)C1 [Compound A225] is lower in pEC50: 4.00 to 4.30 for the first, under 4.00 for the second.

Compared with O=COCCOCCNC(=O)OCc1ccnc(C(=O)N[C@H]2CCC[C@@H](Nc3nc(-c4c[nH]c5ncc(F)cc45)ncc3F)C2)c1 [Compound A115], CCC(CC)OCCNC(=O)OCc1ccnc(C(=O)N[C@H]2CCC[C@@H](Nc3nc(-c4c[nH]c5ncc(F)cc45)ncc3F)C2)c1 [Compound A128] is lower in pEC50: over 5.30 for the first, under 4.00 for the second. The first is the more potent here.

First: O=C(N[C@@H]1CCC[C@H](Nc2nc(-c3c[nH]c4ncc(F)cc34)ncc2F)C1)c1cc(Oc2ccccc2)ccn1 [Compound A66]
Second: O=C(N[C@@H]1CCC[C@H](Nc2nc(-c3c[nH]c4ncc(F)cc34)ncc2F)C1)c1cc(-c2ccc(F)cc2)ccn1 [Compound A60]
The pEC50 of the first is lower: under 4.00 for the first, 4.60 to 5.30 for the second. The second is the more potent here.

CCOC1CCCCC1OCCCCCN(C)C(=O)N[C@H]1CCC[C@@H](Nc2nc(-c3c[nH]c4ncc(F)cc34)ncc2F)C1 (stereo partly drawn) [Compound A245] and CCC(CC)OCCOCCCCCN(C)C(=O)N[C@H]1CCC[C@@H](Nc2nc(-c3c[nH]c4ncc(F)cc34)ncc2F)C1 [Compound A246] cannot be ordered by pEC50: under 4.00 for the first, under 4.00 for the second.

First: O=C(O)CNCCNC(=O)OCc1ccnc(C(=O)N[C@@H]2CCC[C@H](Nc3nc(-c4c[nH]c5ncc(F)cc45)ncc3F)C2)c1 [Compound A110]
Second: CC(C)[C@@H](NC(=O)OCc1ccnc(C(=O)N[C@@H]2CCC[C@H](Nc3nc(-c4c[nH]c5ncc(F)cc45)ncc3F)C2)c1)C(=O)O [Compound A142]
The pEC50 of the first is lower: 4.60 to 5.30 for the first, over 5.30 for the second. The second is the more potent here.

O=C(N[C@@H]1CCC[C@H](Nc2nc(-c3c[nH]c4ncc(F)cc34)ncc2F)C1)c1cncc(-c2ccccc2)c1 [Compound A67] and CCOCCOCCCc1cncc(C(=O)N[C@H]2CCC[C@@H](Nc3nc(-c4c[nH]c5ncc(F)cc45)ncc3F)C2)c1 [Compound A23] cannot be ordered by pEC50: under 4.00 for the first, under 4.00 for the second.

First: CN(CCOCCOCCOCCO)C(=O)N[C@H]1CCC[C@@H](Nc2nc(-c3c[nH]c4ncc(F)cc34)ncc2F)C1 [Compound A190]
Second: CN(CCOCCOCCOCCC(=O)O)C(=O)N[C@H]1CCC[C@@H](Nc2nc(-c3c[nH]c4ncc(F)cc34)ncc2F)C1 [Compound A171]
The pEC50 of the first is lower: under 4.00 for the first, 4.30 to 4.60 for the second. The second is the more potent here.

COc1ccc(CNC(=O)OCc2ccnc(C(=O)N[C@H]3CCC[C@@H](Nc4nc(-c5c[nH]c6ncc(F)cc56)ncc4F)C3)c2)cc1 [Compound A73] and CCOc1ccc(CNC(=O)OCc2ccnc(C(=O)N[C@H]3CCC[C@@H](Nc4nc(-c5c[nH]c6ncc(F)cc56)ncc4F)C3)c2)cc1 [Compound A112] cannot be ordered by pEC50: under 4.00 for the first, under 4.00 for the second.

O=C(O)CCN1CCC[C@H](Nc2nc(-c3c[nH]c4ncc(F)cc34)ncc2F)C1 [Compound C13] and O=C(O)CN1CCC[C@H](Nc2nc(-c3c[nH]c4ncc(F)cc34)ncc2F)C1 [Compound C12] fall in the same range of pEC50: 4.60 to 5.30 for the first, 4.60 to 5.30 for the second.

First: NCCOCCOCCOCC(=O)N[C@@H]1CCC[C@H](Nc2nc(-c3c[nH]c4ncc(F)cc34)ncc2F)C1 [Compound A267]
Second: CCCCCOCCOCCN(Cc1ccccc1)C(=O)N[C@@H]1CCC[C@H](Nc2nc(-c3c[nH]c4ncc(F)cc34)ncc2F)C1 [Compound A179]
The pEC50 of the first is higher: 4.30 to 4.60 for the first, under 4.00 for the second. The first is the more potent here.

CCOCCOCCCCCN(C(=O)N[C@H]1CCC[C@@H](Nc2nc(-c3c[nH]c4ncc(F)cc34)ncc2Cl)C1)C(C)C [Compound A250] and CCOc1ccccc1OCCCCCN(C)C(=O)N[C@@H]1CCC[C@H](Nc2nc(-c3c[nH]c4ncc(F)cc34)ncc2F)C1 [Compound A216] cannot be ordered by pEC50: under 4.00 for the first, under 4.00 for the second.

For CCOc1ccc(CNC(=O)OCc2cc(C(=O)N[C@H]3CCC[C@@H](Nc4nc(-c5c[nH]c6ncc(F)cc56)ncc4F)C3)ncc2F)cc1 [Compound A147], the pEC50 was under 4.00.
